Test results taken from patent US10208015B2, “Aryl-triazolyl pyridines as pest control agents” (BAYER ANIMAL HEALTH GMBH, priority 2014, dated 2019).
Read-outs that look alike come from different tables or passages of the source.

How the values were obtained:
Tetranychus urticae = Tetranychus urticae spray test, OP-resistant; type: in vivo; details: after 6 days
Protocol: Tetranychus Urticae—Spray Test, OP-Resistant
(§1) • Solvent: 78.0 parts by weight of acetone • 1.5 parts by weight of dimethylformamide • Emulsifier: alkylaryl polyglycol ether
To produce further test concentrations, the preparation is diluted with emulsifier-containing water.
After 6 days, the efficacy in % is determined. 100% means that all the spider mites have been killed; 0% means that none of the spider mites have been killed.

Boophilus microplus = Boophilus microplus injection test; type: in vivo; details: application rate 20 μg/animal, assessed after 7 days
Protocol: Boophilus microplus—Injection Test • Solvent: dimethyl sulphoxide […] The animals are transferred into dishes and kept in a climate-controlled room. Efficacy is assessed after 7 days by laying of fertile eggs. Eggs which are not visibly fertile are stored in a climate-controlled cabinet until the larvae hatch after about 42 days.

Amblyomma hebraeum = Amblyomma hebraeum test (tick nymphs, immersion); type: in vivo; details: application rate 100 ppm, after 42 days
From the text: Amblyomma hebaraeum Test • Solvent: dimethyl sulphoxide […] Tick nymphs (Amblyomma hebraeum) are placed into perforated plastic beakers and immersed in the desired concentration for one minute. The ticks are transferred on filter paper into a Petri dish and stored in a climate-controlled cabinet.

Ctenocephalides felis [1] = experiment: Ctenocephalides felis oral test; type: in vivo; details: application rate 100 ppm in citrated cattle blood, after 2 days
From the text: Ctenocephalides felis—Oral Test • Solvent: dimethyl sulphoxide […] Dilution with citrated cattle blood gives the desired concentration. About 20 unfed adult cat fleas (Ctenocephalides felis) are placed into a chamber which is closed at the top and bottom with gauze. A metal cylinder whose bottom end is closed with parafilm is placed onto the chamber. The cylinder contains the blood/active compound preparation, which can be imbibed by the fleas through the parafilm membrane.

Myzus persicae = Myzus persicae spray test; type: in vivo; details: application rate 100 g/ha, after 6 days
Protocol: Myzus Persicae—Spray Test […] To produce further test concentrations, the preparation is diluted with emulsifier-containing water. Discs of Chinese cabbage leaves (Brassica pekinensis) infested by all stages of the green peach aphid (Myzus persicae) are sprayed with an active compound preparation of the desired concentration.

[2] = tested on: Boophilus microplus Parkhurst strain, SP-resistant; experiment: Boophilus microplus dip test; type: in vivo; details: application rate 100 ppm, assessed after 7 days
Protocol: Boophilus microplus—Dip Test
• Test animals: cattle ticks (Boophilus microplus) Parkhurst strain, SP-resistant • Solvent: dimethyl sulphoxide
10 mg of active compound are dissolved in 0.5 ml of dimethyl sulphoxide. To produce a suitable formulation, the active compound solution is diluted with water to the concentration desired in each case.
This active compound preparation is pipetted into tubes. 8-10 engorged adult female cattle ticks (Boophilus microplus) are transferred into a further tube with holes. The tube is immersed into the active compound preparation, and all the ticks are completely wetted. After the liquid has run out, the ticks are transferred on filter discs into plastic dishes and stored in a climate-controlled room.
Efficacy is assessed after 7 days by laying of fertile eggs. Eggs which are not visibly fertile are stored in a climate-controlled cabinet until the larvae hatch after about 42 days. An efficacy of 100% means that none of the ticks has laid any fertile eggs; 0% means that all the eggs are fertile.

Rhipicephalus sanguineus = Rhipicephalus sanguineus in vitro contact test with adult brown dog ticks; type: in vivo; details: after 48 h
Protocol: Rhipicephalus sanguineus—In Vitro Contact Tests with Adult Brown Dog Ticks
(§2) For the coating of the test tubes, 9 mg of active compound are first dissolved in 1 ml of acetone p.a. and then diluted to the desired concentration with acetone p.a. 250 μl of the solution are distributed homogeneously on the inner walls and the base of a 25 ml test tube by turning and rocking on an orbital shaker (rocking rotation at 30 rpm for 2 h). With 900 ppm active compound solution and internal surface 44.7 cm^2, given homogeneous distribution, an area-based dose of 5 μg/cm^2 is achieved.
After the solvent has evaporated off, the tubes are populated with 5-10 adult dog ticks (Rhipicephalus sanguineus), sealed with a perforated plastic lid and incubated in a horizontal position in the dark at room temperature and ambient humidity. After 48 h, efficacy is determined. To this end, the ticks are knocked to the floor of the tube and incubated on a hotplate at 45-50° C. for not more than 5 min. Ticks which remain motionless on the floor or move in such an uncoordinated manner that they are unable to deliberately avoid the heat by climbing upwards are considered to be dead or moribund.
An efficacy of 100% means that all the ticks were dead or moribund. 0% efficacy means that none of the ticks had been harmed.

Musca domestica = Musca domestica test; type: in vivo; details: application rate 100 ppm, adult houseflies, after 2 days
Protocol: (§3) • Solvent: dimethyl sulphoxide
(§4) To produce a suitable preparation of active compound, 10 mg of active compound are mixed with 0.5 ml of dimethyl sulphoxide, and the concentrate is diluted with water to the desired concentration.
Vessels containing a sponge treated with sugar solution and the active compound preparation of the desired concentration are populated with 10 adult houseflies (Musca domestica).
After 2 days, the kill in % is determined. 100% means that all of the flies have been killed; 0% means that none of the flies have been killed.

Lucilia cuprina = Lucilia cuprina test; type: in vivo; details: application rate 100 ppm, L1 larvae, after 2 days
Protocol: as §3, §4
About 20 L1 larvae of the Australian sheep blowfly (Lucilia cuprina) are transferred into a test vessel containing minced horsemeat and the active compound preparation of the desired concentration.
After 2 days, the kill in % is determined. 100% means that all the larvae have been killed; 0% means that no larvae have been killed.

Phaedon cochleariae = Phaedon cochleariae spray test; type: in vivo; details: application rate 100 g/ha, after 7 days
Protocol: Phaedon Cochleariae—Spray Test
as §1
(§5) To produce a suitable preparation of active compound, 1 part by weight of active compound is dissolved using the stated parts by weight of solvent and made up with water containing an emulsifier concentration of 1000 ppm until the desired concentration is attained. To produce further test concentrations, the preparation is diluted with emulsifier-containing water.
After 7 days, the efficacy in % is determined. 100% means that all the beetle larvae have been killed; 0% means that no beetle larvae have been killed.

Ctenocephalides felis [3] = experiment: Ctenocephalides felis in vitro contact test with adult cat fleas; type: in vivo; details: application rate 500 g/ha (5 μg/cm^2), after 48 h
Protocol: Ctenocephalides felis—In Vitro Contact Tests with Adult Cat Fleas
as §2
After the solvent has evaporated off, the tubes are populated with 5-10 adult cat fleas (Ctenocephalides felis), sealed with a perforated plastic lid and incubated in a horizontal position at room temperature and ambient humidity. After 48 h, efficacy is determined. To this end, the test tubes are stood upright and the fleas are knocked to the base of the tube. Fleas which remain motionless at the base or move in an uncoordinated manner are considered to be dead or moribund.
100% efficacy means that all the fleas were dead or moribund. 0% efficacy means that no fleas were harmed.

Spodoptera frugiperda = Spodoptera frugiperda spray test; type: in vivo; details: application rate 100 g/ha, after 7 days
Protocol: Spodoptera Frugiperda—Spray Test
as §1, §5
Leaf discs of maize (Zea mays) are sprayed with an active compound preparation of the desired concentration and, after drying, populated with caterpillars of the armyworm (Spodopterafrugiperda).
After 7 days, the efficacy in % is determined. 100% means that all the caterpillars have been killed; 0% means that no caterpillars have been killed.

[4] = logP by HPLC on reversed-phase column (C18), EEC Directive 79/831 Annex V.A8; type: physicochemical
[5] = application rate 500 g/ha (5 μg/cm^2)
[6] = HPLC, C18, acetonitrile (0.1% formic acid)/water (0.09% formic acid) gradient

| Compound | efficacy in % (Tetranychus urticae; application rate 100 g/ha) | efficacy (laying of fertile eggs) (Boophilus microplus) | efficacy (kill in %) (Amblyomma hebraeum) | efficacy (kill in %) (Ctenocephalides felis [1]) | efficacy in % (Myzus persicae) | efficacy (laying of fertile eggs) [2] | efficacy (ticks dead or moribund) (Rhipicephalus sanguineus; [5]) | efficacy (kill in %) (Musca domestica) | efficacy (kill in %) (Lucilia cuprina) | efficacy in % (Phaedon cochleariae) | efficacy (fleas dead or moribund) (Ctenocephalides felis [3]) | efficacy in % (Spodoptera frugiperda) | chromatographic logP ([4]; reversed-phase C18 HPLC column, HPLC, C18, acetonitrile (0.1% formic acid)/water (0.09% formic acid) gradient, read-out: logP) | chromatographic logP ([4]; reversed-phase C18 HPLC column, HPLC-MS method a), read-out: log P (HPLC-MS)) | logP [4, 6] | efficacy in % (Tetranychus urticae; application rate 20 g/ha) | efficacy (ticks dead or moribund) (Rhipicephalus sanguineus; application rate 20 g/ha (0.2 μg/cm^2)) |
| --- | --- | --- | --- | --- | --- | --- | --- | --- | --- | --- | --- | --- | --- | --- | --- | --- | --- |
| Cc1cc(C(F)(C(F)(F)F)C(F)(F)F)cc(C)c1-n1cc(-c2cnc(C)c(C(=O)NC3CC3)c2)nn1 [Example 1, N-cyclopropyl-5-[1-[2,6-dimethyl-4-[1,2,2,2-tetrafluoro-1-(trifluoromethyl)ethyl]phenyl]triazol-4-yl]-2-methylpyridine-3-carboxamide] | 100% | 100% | 80% | 100% | 90% | 100% | 100% | 100% | 100% | 100% | 100% | 100% | 3.3 | 3.33 | – | – | – |
| Cc1cc(C(F)(C(F)(F)F)C(F)(F)F)cc(C)c1-n1cc(-c2cnc(Cl)c(C(=O)NC3CC3)c2)nn1 [Example 2] | 90% | 100% | 100% | 100% | 90% | 100% | 100% | 100% | 100% | 100% | 100% | 100% | – | – | 3.8 | – | – |
| O=C(NC1CC1)c1cc(-c2cn(-c3c(Cl)cc(C(F)(C(F)(F)F)C(F)(F)F)cc3Cl)nn2)cnc1Cl [Example 3] | – | 100% | 100% | 100% | – | 100% | 100% | 100% | 100% | 100% | – | 100% | – | – | 3.9 | 90% | – |
| Cc1ncc(-c2cn(-c3c(Cl)cc(C(F)(C(F)(F)F)C(F)(F)F)cc3Cl)nn2)cc1C(=O)NC1CC1 [Example 5] | 100% | 100% | 100% | 100% | – | 100% | 100% | 100% | 100% | 100% | 100% | 100% | – | – | 3.4 | – | – |
| Cc1cc(C(F)(C(F)(F)F)C(F)(F)F)cc(C)c1-n1cc(-c2cnc(Cl)c(C(=O)NC3(C#N)CC3)c2)nn1 [Example 8] | 100% | 100% | 100% | 100% | – | 100% | 100% | 95% | 90% | 100% | 100% | – | – | – | 3.8 | – | – |
| N#CC1(NC(=O)c2cc(-c3cn(-c4c(Cl)cc(C(F)(C(F)(F)F)C(F)(F)F)cc4Cl)nn3)cnc2Cl)CC1 [Example 9] | 100% | 100% | 100% | 100% | – | 100% | – | 100% | 100% | 100% | 100% | – | – | – | 3.8 | – | 100% |
| Cc1cc(C(F)(C(F)(F)F)C(F)(F)F)cc(C(F)(F)F)c1-n1cc(-c2cnc(Cl)c(C(=O)NC3CC3)c2)nn1 [Example 13] | 100% | 100% | – | 100% | 90% | 100% | 100% | 100% | 100% | 100% | 100% | 100% | – | – | 3.9 | – | – |
